# Test results from PubChem BioAssay (NCI).
#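 Growth conditions: 96-well plates. Treatment: test compound, 48 hours, 5 concentrations. Analysis: linear interpolation between bracketing concentrations; unreached endpoints set to highest concentration. GI50 is the concentration that inhibits growth by half. TGI denotes the concentration required for complete inhibition of growth.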
# What was measured:
# Test in all cases: inhibition of tumour cell growth, NCI panel, 48 h
# T-47D breast = tested on: T-47D breast
# UACC-257 melanoma = tested on: UACC-257 melanoma
# MALME-3M melanoma = tested on: MALME-3M melanoma
# CCRF-CEM leukemia = tested on: CCRF-CEM leukemia
# SK-OV-3 ovarian = tested on: SK-OV-3 ovarian
# EKVX NSCLC = tested on: EKVX NSCLC
# NCI-H460 lung = tested on: NCI-H460 lung
# NCI/ADR-RES ovarian = tested on: NCI/ADR-RES ovarian
# SK-MEL-28 melanoma = tested on: SK-MEL-28 melanoma
# RXF 393 renal = tested on: RXF 393 renal
SMILES,GI50 (T-47D breast) [µM],TGI (T-47D breast) [µM],GI50 (UACC-257 melanoma) [µM],TGI (UACC-257 melanoma) [µM],GI50 (MALME-3M melanoma) [µM],TGI (MALME-3M melanoma) [µM],GI50 (CCRF-CEM leukemia) [µM],TGI (CCRF-CEM leukemia) [µM],GI50 (SK-OV-3 ovarian) [µM],TGI (SK-OV-3 ovarian) [µM],GI50 (EKVX NSCLC) [µM],TGI (EKVX NSCLC) [µM],GI50 (NCI-H460 lung) [µM],TGI (NCI-H460 lung) [µM],GI50 (NCI/ADR-RES ovarian) [µM],TGI (NCI/ADR-RES ovarian) [µM],GI50 (SK-MEL-28 melanoma) [µM],TGI (SK-MEL-28 melanoma) [µM],GI50 (RXF 393 renal) [µM],TGI (RXF 393 renal) [µM]
O=C(NCCOCCOCCOCCNC(=O)c1cc2c(o1)C(=O)c1ccccc1C2=O)NC12CC3CC(CC(C3)C1)C2,1.59,6.02,1.36,2.83,0.191,0.489,3.23,> 100,2.84,7.43,2.57,7.07,1.19,2.93,2.96,10.1,1.94,3.75,1.58,3.05
Oc1[nH]c2ccccc2c1/C=c1/ccc2c(c1)N=C(c1ccc(C(F)(F)F)cc1)N=2,3.58,14.4,7.4,21.5,2.9,9.23,1.65,5.05,12.1,25,4.34,16.9,2.13,6.12,3.98,13.1,3.11,16.2,2.21,4.32
COc1cc(-c2nc3ccccc3o2)cc(CN2CCCCC2)c1O,17,> 100,2.06,5.51,1.8,3.87,4.06,> 100,30.2,> 74.1,12.3,> 100,2.84,10.9,5.79,76.4,1.97,4.12,17.1,52
COc1ccc2c(O)c(/C=C3\N=Nc4ncccc43)oc2c1C[C@@H]1CCNC[C@H]1F,2.32,11.8,2.82,9.46,1.89,5.23,0.141,0.993,2.33,7.71,0.426,2.56,0.617,2.05,0.915,4.31,2.22,7.25,0.253,0.984
CCCCOc1ccc(/C=N/Nc2cc(C)nc3ccc(Br)cc23)cc1,1.69,3.6,1.66,3.18,1.91,3.4,1.88,4.46,1.66,3.05,1.63,3.03,2.08,4.06,1.96,3.85,1.72,3.13,1.6,3.05
Cc1c2ccncc2c(C)c2c1sc1ccccc12,–,> 100,–,47.2,–,29.1,–,30.4,–,34.4,–,25.2,–,14.3,–,25,–,32.7,–,23.9
C#CC1(O)C(COP(=O)(O)OCC2OC(n3cc(F)c(=O)[nH]c3=O)CC2O)OC(n2ccc(N)nc2=O)C1O (configuration not stated),< 0.0238,–,0.114,> 23.1,< 0.0118,0.444,< 0.01,–,> 100,> 100,0.529,> 29.8,< 0.01,> 21.5,< 0.0115,16,< 0.01,0.378,< 0.0387,1.48
O=C(c1ccc([N+](=O)[O-])cc1)C(Br)C(Br)c1ccnc2ccccc12 (configuration not stated),–,> 56.6,–,14.6,–,25.4,–,2.11,–,32.1,–,34.3,–,13.8,–,> 71.7,–,30.8,–,21.2
C#C[C@@]1(O)[C@@H](CO)O[C@@H](n2cc(C(F)(F)F)c3c(N)ncnc32)[C@@H]1O,0.0639,3.77,0.6,–,1.19,4.84,0.487,> 37.2,0.214,> 100,1.62,> 25.9,0.536,10.6,0.487,> 24.7,1.83,10,0.841,2.74
CC(=O)/C(Br)=C/c1ccc(Br)o1,8.89,24.2,6.05,19.2,6.15,14.3,2.04,5.85,26.8,> 65.8,14.6,28.1,14.2,30.9,7.88,38.3,2.87,9.18,2.86,11
C=C1C(=O)O[C@H]2[C@H]1CC/C(COC(=O)/C=C\C(=O)NCc1ccc(Cn3c(=O)sn(CCI)c3=O)cc1)=C\CC[C@@]1(C)O[C@@H]21,2.58,6.83,2.07,5.97,1.85,3.63,1.61,6.19,17.4,31.2,4.7,20.2,15.5,37.9,10.2,> 100,2.23,5.04,1.81,3.69
[N-]=[N+]=NCCCn1c2c(c3ccc([N+](=O)[O-])cc3c1=O)C(=O)c1cc(-c3ccccc3)ccc1-2,> 100,> 100,> 100,> 100,> 100,> 100,> 100,> 100,> 100,> 100,> 100,> 100,> 100,> 100,> 100,> 100,> 100,> 100,> 100,> 100
c1ccc(Oc2ccc(Nc3ncc(-c4ccccc4)o3)cc2)cc1,> 25,> 25,> 25,> 25,> 25,> 25,> 25,> 25,> 25,> 25,> 25,> 25,> 25,> 25,> 25,> 25,> 25,> 25,> 25,> 25
CCCCCCCCCCNCCSS(=O)(=O)O,10.9,29.5,7.88,22.4,5.83,19.6,1.86,3.98,2.6,7.58,4.14,19.2,1.72,3.22,2.11,4.37,1.65,4.84,2.21,3.91
